Assay results published in patent US20230104823A1, “PROCESS FOR THE PREPARATION OF PURINE DERIVATIVES EXHIBITING CDK INHIBITORY ACTIVITY” (CYCLACEL LIMITED, priority 2020, published 2023).
Values after ≈ are worked out from the molar mass of the structure shown.

How the values were obtained:
[1] = solubility measurement during crystallisation of crude compound [1]; assay type: physicochemical; conditions: for T=0 solubility measurement: 5 volumes
Protocol: The hot mixture was clarified through a heated large nylon syringe filter (0.44 μm) into a Mya4 100 ml process vessel with overhead U-shape agitation at 200 RPM pre-heated to 95° C. (target internal temperature=80-85° C.). The dark brown solution was cooled to 74.5° C. over 15 minutes and seeded with crystals of compound [1] (Form A) (ca. 6 mg 0.1% wt). […] Noticeable amounts of off-white precipitate were observed ca. 61-62° C. Following cooling, the mixture was held at 0° C. for ca. 3 hours. The solids were isolated via filtration, with no evidence of fouling of the vessel or agitator. The vessel and filter cake were washed with the isolated filtrates and air dried for 15 minutes before collection of the off-white solids and dark brown liquors. The solids were collected and dried in vacuo at 45° C. for ca. 4 hours to yield the title compound. 4.88 g of crystalline Compound [1] was successfully isolated in 80.1% yield. The maximum theoretical recovery based upon measured solubility pre-isolation at 0° C. was 94.2%.
Crude Compound [1] (6.00 g) was suspended ethyl acetate (30 ml, 5 volumes) in a suitable glass vessel under N2 fitted with reflux condenser and stirrer bead agitation at 420 RPM. The beige suspension was heated to 75° C. (target 70-75° C.) upon which full dissolution to a dark brown solution was achieved during heating at ca. 68° C. The hot mixture was clarified through a heated large nylon syringe filter (0.44 μm) into a Mya4 100 ml process vessel with overhead U-shape agitation at 200 RPM pre-heated to 85° C. (target internal temperature=70-75° C.). The dark brown solution was cooled to 65.2° C. over 15 minutes (target 62.5-67.5° C.) and seeded with crystals of compound [1] (Form A) (ca. 6 mg 0.1% wt). Cooling was continued to 59.8° C. […] The solids were isolated via filtration. The vessel and filter cake were washed with the isolated filtrates and air dried for 12 minutes before collection of the off-white solids and dark brown liquors. The solids were collected and dried in vacuo at 45° C. for ca. 4 hours to yield the title compound. 4.59 g of crystalline Compound [1] was successfully isolated in 76.4% yield. The maximum theoretical recovery based upon measured solubility pre-isolation at 0° C. was 90.6%.
Crude Compound [1] (5.96 g) was suspended n-Butyl acetate (30 ml, 5 volumes) in a suitable glass vessel under N2 fitted with reflux condenser and stirrer bead agitation at 420 RPM. The beige suspension was heated to 85° C. (target 80-85° C.) upon which full dissolution to a dark brown solution was achieved during heating at ca. 82° C. The hot mixture was clarified through a heated large nylon syringe filter (0.44 μm) into a Mya4 100 ml process vessel with overhead U-shape agitation at 200 RPM pre-heated to 95° C. (target internal temperature=80-85° C.). The dark brown solution was cooled to 74.6° C. over 15 minutes (target 72.5-77.5° C.) and seeded with crystals of compound [1] (Form A) (ca. 6 mg 0.1% wt). Cooling was continued to 69.5° C. […] The solids were isolated via filtration. The vessel and filter cake were washed with the isolated filtrates and air dried for 10 minutes before collection of the grey solids and dark brown liquors. The solids were collected and dried in vacuo at 45° C. for ca. 4 hours to yield the title compound. 4.64 g of crystalline Compound [1] was successfully isolated in 77.9% yield. The maximum theoretical recovery based upon measured solubility pre-isolation at 0° C. was 91.7%.

[2] = test system: range of different cell lines; conditions: statement in background section; cited from earlier work
CDK = conditions: statement in background section; cited from earlier work

- T=0 solubility measurement ([1]; ethyl acetate, after seeding at 59.8° C.): 184.35 mg/mL
- solubility ([1]; ethyl acetate, held at 0° C. for ca. 5 hours (90.06% development)): 18.84 mg/mL (≈ 47.4 mM)
- T=0 solubility measurement ([1]; isopropyl acetate, after seeding at 70.1° C.): 189.83 mg/mL
- T=0 solubility measurement ([1]; n-butyl acetate, after seeding at 69.5° C.): 175.84 mg/mL
- solubility ([1]; n-butyl acetate, held at 0° C. for ca. 3 hours (91.7% development)): 16.61 mg/mL (≈ 41.8 mM)
SMILES: CC[C@H](Nc1nc(NCc2cnc(C)cc2C)c2ncn(C(C)C)c2n1)[C@@H](C)O [Compound [1]]
- potency in cellular toxicity studies [2]: surprisingly high potency
- CDK inhibitory activity (CDK): potent CDK inhibitory activity
